In experiment [1] the target is Programmed cell death protein 1/Programmed cell death 1 ligand 1 (Homo sapiens, UniProt Q9NZQ7). Nature of the experiment: Inhibition of interaction of Fc(IgG1)-Avi)-(Biotin)-fused human PDL1 (19 to 239 residues)/Eu-labeled human PD-1 (25 to 167 residues) expressed in HEK293 cells pretreated with PDL1 for 15 mins followed by PD-1 addition and measured after 90 mins by TR-FRET assay. It is filed as cell-based. In general terms: TR-FRET usually uses a lanthanide donor and a delayed reading to cut background.
Sequence of Programmed cell death protein 1/Programmed cell death 1 ligand 1 (Q15116 whole entry, the tested form may be a part): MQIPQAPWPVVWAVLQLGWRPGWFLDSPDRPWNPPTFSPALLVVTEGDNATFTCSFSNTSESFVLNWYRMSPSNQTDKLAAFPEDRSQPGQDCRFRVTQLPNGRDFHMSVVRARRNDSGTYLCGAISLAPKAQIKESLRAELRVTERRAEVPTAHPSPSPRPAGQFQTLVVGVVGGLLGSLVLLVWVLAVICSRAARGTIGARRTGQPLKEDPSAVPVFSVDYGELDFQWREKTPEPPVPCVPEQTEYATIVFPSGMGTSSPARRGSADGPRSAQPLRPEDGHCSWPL
Sequence of Programmed cell death protein 1/Programmed cell death 1 ligand 1 (Q9NZQ7 whole entry, the tested form may be a part): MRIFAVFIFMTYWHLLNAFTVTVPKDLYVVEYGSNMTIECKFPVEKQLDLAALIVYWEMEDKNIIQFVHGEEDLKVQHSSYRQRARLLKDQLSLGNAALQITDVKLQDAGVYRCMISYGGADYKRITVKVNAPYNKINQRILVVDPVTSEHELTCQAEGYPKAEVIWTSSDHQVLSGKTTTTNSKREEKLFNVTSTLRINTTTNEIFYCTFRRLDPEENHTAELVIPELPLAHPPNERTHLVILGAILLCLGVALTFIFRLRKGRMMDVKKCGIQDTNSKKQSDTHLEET

Experiment [2] has as its target Programmed cell death 1 ligand 1 (Homo sapiens, UniProt Q9NZQ7). Nature of the experiment: Inhibition of human recombinant PDL1 expressed in HEK293 cells assessed as restoration of Jurkat T cell activity by measuring increase in IFNgamma secretion at 1 uM incubated for 24 hrs by ELISA. It is filed as cell-based. Also on record: Activity: scale not given: the % may be the effect or the level left. On the technique in general: In an ELISA, binding on a coated surface is turned into a signal by an enzyme label.

In experiment [3] the test system is CT26. Nature of the experiment: Antitumor activity against mouse CT26 cells xenografted in BALB/c mouse assessed as inhibition of tumor growth at 20 mg/kg, ip qd for 2 weeks. It is filed as functional, organism-based.
Experiment [4] has as its system CT26. Description: Antitumor immunity against mouse CT26 cells xenografted in BALB/c mouse assessed as increase in infiltration of CD8+ cells in tumor at 20 mg/kg, ip qd for 2 weeks by immunohistochemical staining based analysis. In kind it is functional, organism-based.
The test system of experiment [5] is CT26. Nature of the experiment: In vivo inhibition of PDL1 in BALB/c mouse xenografted with mouse CT26 cells assessed as induction of PDL1 degradation by measuring decrease in PDL1 protein expression in tumor at 20 mg/kg, ip qd for 2 weeks by immunohistochemical staining based analysis. In kind it is functional, organism-based.

Structures are written as SMILES. Activity calls are given as the source filed them. The calls are words filed in the database; no cut-off is given here.

Usually IC50 stands for the midpoint of a concentration-inhibition curve.

Sequence of Programmed cell death 1 ligand 1 (Q9NZQ7 whole entry): as the sequence (Q9NZQ7 whole entry, the tested form may be a part) above

Consider `COc1nc(O[C@H]2CCc3c(-c4cccc(C(=O)Nc5ccc(CNCCNC(C)=O)c(C(F)(F)F)n5)c4Cl)cccc32)c(Cl)cc1CNCCNC(C)=O`, for which the concentration for half-maximal inhibition (IC50) in experiment [1] came out at 18.8 nM.

In the case of `COc1nc(O[C@H]2CCc3c(-c4cccc(C(=O)Nc5ccc(CNCCO)cn5)c4Cl)cccc32)c(Cl)cc1CNCCO`, the IC50 in experiment [1] was determined as 4.3 nM. Same read-out and setting: under `COc1nc(O[C@H]2CCc3c(-c4cccc(C(=O)Nc5ccc(CNCCNC(C)=O)c(F)n5)c4Cl)cccc32)c(Cl)cc1CNCCNC(C)=O` stands 15.6 nM; under `COc1nc(NC(=O)c2cccc(-c3cccc4c3CC[C@@H]4Oc3nc(OC)c(CNCCO)cc3Cl)c2Cl)ccc1CNCCO`, 18.2 nM. In the case of `COc1nc(-c2cccc(-c3cccc(-c4nnc(Nc5cccc(CNCCO)c5)o4)c3C)c2C)ccc1CNCCNC(C)=O`, the IC50 in experiment [1] came out at 23.5 nM. In addition, the Activity in experiment [2] turned out to be 66%. Regarding `Cc1c(C(=O)Nc2ccc(CNCCO)cc2)cccc1-c1cccc(-c2nnc(Nc3cccc(CNCCO)c3)o2)c1C`, the IC50 in experiment [1] was 127 nM. Still for that read-out and setting: under `COc1nc(O[C@H]2CCc3c(-c4cccc(C(=O)Nc5ccc(CN6CC(O)C6)cn5)c4Cl)cccc32)c(Cl)cc1CN1CC(O)C1` stands 6.3 nM; under `Cc1c(-c2nnc(Nc3cccc(CNCC(=O)O)c3)o2)cccc1-c1cccc(-c2nnc(Nc3cccc(CNCC(=O)O)c3)o2)c1C`, 68.8 nM; under `Cc1c(-c2cccc(-c3ccc(CNCCO)cc3)c2)cccc1-c1nnc(Nc2cccc(CNCCO)c2)o1`, 42 nM.

On to `Cc1c(-c2nnc(Nc3ccc(CN4CC[C@@H](O)C4)cc3)o2)cccc1-c1cccc(-c2nnc(Nc3cccc(CN4CC[C@@H](O)C4)c3)o2)c1C`, for which the IC50 in experiment [1] was found to be 1180 nM.

Turning to `COc1nc(-c2cccc(-c3cccc(-c4nnc(Nc5cccc(CNCCO)c5)o4)c3C)c2C)ccc1CNCCO`, the half-maximal inhibitory concentration (IC50) in experiment [1] turned out to be 13.9 nM. Also, in experiment [2], the inhibition result is “Active”. In the case of `COc1nc(O[C@H]2CCc3c(-c4cccc(C(=O)Nc5ccc(CNCCN(C)C)cn5)c4Cl)cccc32)c(Cl)cc1CNCCN(C)C`, the IC50 in experiment [1] amounted to 4.2 nM. `Cc1c(-c2nnc(Nc3cccc(CNCCO)c3)o2)cccc1-c1cccc(C(=O)Nc2ccc(CNCCO)cn2)c1Cl`: the half-inhibitory concentration (IC50) in experiment [1] amounted to 8.2 nM. Regarding `Cc1c(Nc2nccc3cc(CN4CC[C@@H](O)C4)cnc23)cccc1-c1cccc(-c2nc3cc(CN4CC[C@@H](C(=O)O)C4)cc(C#N)c3o2)c1C`, the outcome in the experiment with CT26 [3] and in the experiment on CT26 [4] was Active. For the same compound, the inhibition result in the experiment on CT26 [5] is “inactive”. Consider `CC(=O)NCCNCc1cccc(Nc2nnc(-c3cccc(-c4cccc(-c5nnc(Nc6cccc(CNCCO)c6)o5)c4C)c3C)o2)c1`, for which the 50% inhibitory concentration (IC50) in experiment [1] was determined as 38 nM.

Values taken from ChEMBL document CHEMBL5376007, “Discovery of Novel PD-L1 Inhibitors That Induce the Dimerization, Internalization, and Degradation of PD-L1 Based on the Fragment Coupling Strategy” (J Med Chem, 2023).
